Values after ≈ are worked out from the molar mass of the structure shown. Read-outs that look alike come from different tables or passages of the source.
Experiments:
P. aeruginosa DSM1117 = assay: MIC, standard microdilution assay, growing P. aeruginosa; type: cell-based, Pseudomonas aeruginosa; settings: Pseudomonas aeruginosa, DSM1117, P. aeruginosa
Method in brief: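 Standard microdilution protocol, triplicate wells. For S. flexneri the growth medium is TSB. The other three strains are grown in HEPES-buffered (40 mM, pH 7.4) CA-MHB, and UPEC is also run at pH 5.5 in LPM containing 30 mM MES.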

non-growing UPEC CFT073 [1] = assay: Dilution-regrowth assay (screen, hit validation, dose-response) on stationary-phase UPEC; type: cell-based, Escherichia coli; settings: for EC50: Escherichia coli, E. coli, regrowth delay of non-growing bacteria, 24 h treatment, OD600 6 h after 2500-fold dilution, read-out: EC50
Method in brief: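 Regrowth (OD600 after 6 h, 37 °C) of diluted non-growing CFT073, following 24 h compound treatment of 24 h stationary cultures, defines activity relative to untreated control. Screen at 20 µM, validation at 20, 10, 5 µM (duplicates), dose–response in three biological replicates fitted by five-parameter logistic.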

non-growing UPEC CFT073 [2] = assay: Dose-dependent killing analysis (CFU spot-plating) of stationary-phase UPEC; type: cell-based, Escherichia coli
Experimental: To differentiate between these scenarios, we used CFU counting by agar plating to assess the bactericidal effect on non-growing bacteria. […] Conversely, if no significant reduction in CFU is observed, the regrowth delay is due to PAE without killing. […] Fluoroquinolones are known to cause PAE after treatment of growing bacterial cultures.
(§1) For survival analysis, bacteria were cultivated as described for the dose–response dilution-regrowth assay. Assays with UPEC were conducted at the CBCS screening facility using 96-well plates with a 200 μl sample volume, and compounds were dispensed using the Echo® (Labcyte) system. P. aeruginosa and S. aureus samples were treated according to the protocol used for the dilution-regrowth experiments. Treated samples were serially diluted 10-fold in PBS, and 10 μl drops were spot-plated onto rectangular LB agar plates using either a Beckman NXP robot (for UPEC) or an Integra VIAFLO96 electronic pipette (for P. aeruginosa and S. aureus). The LB agar plates were incubated overnight at 37 °C and scanned. Colonies were counted at the spots of the lowest dilution where individual colonies could be accurately distinguished. Each colony was manually marked on a separate image layer using the GNU Image Manipulation Program, and counted using NIST’s Integrated Colony Enumerator (NICE 1.4) software. The experiments were performed in three biological replicates.

[3] = system: non-growing P. aeruginosa DSM1117; assay: Dose-dependent killing analysis (CFU spot-plating) of stationary-phase P. aeruginosa; type: cell-based, Pseudomonas aeruginosa
Experimental: The cultures were grown and treated for 24 h in 1:4 CA-MHB (pH 7.4).
as §1

[4] = 1:4 diluted CA-MHB pH 7.4, read-out: MIC (μM) 1:4 CA-MHB
[5] = CA-MHB pH 7.4, read-out: MIC (μM) CA-MHB

Row | SMILES | MIC (P. aeruginosa DSM1117; [4]) [µM] | MIC (P. aeruginosa DSM1117; [5]) [µM] | EC50 (non-growing UPEC CFT073 [1]; pH 7.4, 1:4 CA-MHB) [nM] | bactericidal effect against stationary-phase UPEC cultures (non-growing UPEC CFT073 [2]; 20 µM, preliminary experiments) | EC50 (non-growing UPEC CFT073 [1]; LPM pH 5.5) [nM] | reduction of bacterial counts, stationary phase P. aeruginosa ([3]; at 0.5 µM, 24 h treatment) | reduction of bacterial counts, non-growing P. aeruginosa ([3]; at 2.5 µM, 1:4 CA-MHB pH 7.4, 24 h treatment) | activity against non-growing UPEC in LPM (pH 5.5) compared to 1:4 CA-MHB (pH 7.4) (non-growing UPEC CFT073 [1]; regrowth delay and killing, Figs. 2 and 3) | bactericidal activity against non-growing UPEC (CFU counting) (non-growing UPEC CFT073 [2]; 24 h treatment of stationary phase culture)
1 | COc1c(N2CCNC(C)C2)c(F)cc2c(=O)c(C(=O)O)cn(C3CC3)c12 (stereo not drawn) [Gatifloxacin] | 4 (≈ 1.5 µg/mL) | 4 (≈ 1.5 µg/mL) | 709 | bactericidal effects | – | – | – | – | –
2 | CC1Sc2c(C(=O)O)c(=O)c3cc(F)c(N4CCNCC4)cc3n21 (stereo not drawn) [Ulifloxacin] | 0.5 (≈ 0.175 µg/mL) | 0.5 (≈ 0.175 µg/mL) | 460 | – | 8780 | more than four | more than four | – | –
3 | C=C[C@]1(C)C[C@@H](OC(=O)CSC(C)(C)CNC(=O)[C@H](N)C(C)C)[C@]2(C)[C@H](C)CC[C@]3(CCC(=O)[C@H]32)[C@@H](C)[C@@H]1O [Valnemulin] | > 160 | > 160 | 373 | – | – | – | – | active at pH 7.4 and completely inactive in the acidic medium | not bactericidal

From article PMC11992225, “Antibacterial compounds against non-growing and intracellular bacteria” (npj Antimicrobials and Resistance, 2025)
